Assays:
[1] = tested on: MHC class II protein on the cell surface; assay: Cell surface MHC class II protein by flow cytometry on SK-N-MC; assay type: cell-based, human; conditions: for expression of MHC class II protein on the cell surface: flow cytometry, 50 nM TSA for 48 hours, IFNγ 100 U/ml same time
[2] = tested on: CD40; assay: Cell surface CD40 by flow cytometry on Colon 26 and J558; assay type: cell-based, mouse
Method: To determine the effect of TSA on cell surface protein expression, the J558 cell line was subjected to flow cytometric analyses as follows. Flow cytometric analyses were conducted by standard methods using cells fixed with 1.0% paraformaldehyde and analyzed on the FACScan (Becton Dickinson). Cell cycle analyses were carried out by flow cytometry with PI staining of genomic DNA. Cells were fixed and permeablized in methanol, treated with RNaseA and analyzed for DNA content by determination of FL3-area on the FACScan. The FL3-area data were analyzed with the ModFit software for determination of the percent cells in each phase of the cell cycle. In some cases, fluorescein isothiocyanate (FITC)-conjugated antibody staining was conducted prior to PI treatment and surface staining was analyzed as a function of cell cycle phase. Apoptosis was analyzed by staining with annexin-V directly conjugated with either FITC or RPE and by sub-G0 analysis of DNA staining. […] Isotype controls were analyzed and, in each case, fell on or below the levels shown for control cells. […] Since all cells were positive for MHC class I expression, the number under the histogram represents -fold change of expression calculated from the mean channel-shift after treatment relative to untreated cells. […]

[3] = tested on: CD40 mRNA; assay: CD40 mRNA by real-time PCR in SK-N-MC; assay type: cell-based, human; conditions: MC cells, at 24 hours
[4] = tested on: MHC class II protein on the cell surface; assay: Cell surface MHC class II protein by flow cytometry on Colon 26 and J558; assay type: cell-based, mouse; conditions: for expression of MHC class II protein on the cell surface: Colon 26 (50 nM TSA 48 hours) and J558 (25 nM TSA 24 hours), flow cytometry, IFNγ 100 U/ml same time
Method: To determine the effect of TSA on cell surface protein expression, the J558 cell line was subjected to flow cytometric analyses as follows. Flow cytometric analyses were conducted by standard methods using cells fixed with 1.0% paraformaldehyde and analyzed on the FACScan (Becton Dickinson). Cell cycle analyses were carried out by flow cytometry with PI staining of genomic DNA. Cells were fixed and permeablized in methanol, treated with RNaseA and analyzed for DNA content by determination of FL3-area on the FACScan. The FL3-area data were analyzed with the ModFit software for determination of the percent cells in each phase of the cell cycle. In some cases, fluorescein isothiocyanate (FITC)-conjugated antibody staining was conducted prior to PI treatment and surface staining was analyzed as a function of cell cycle phase. Apoptosis was analyzed by staining with annexin-V directly conjugated with either FITC or RPE and by sub-G0 analysis of DNA staining. Expression levels without treatment are shown as shaded peaks, IFNγ treated cell expression is plotted by a thin line while the level of expression on TSA treated cells is represented by a heavy line. Isotype controls were analyzed and, in each case, fell on or below the levels shown for control cells. MC and Colon 26 treatments are shown for 50 nM TSA for 48 hours, while J558 treatment is for 25 nM TSA for 24 hours. All IFNγ treatments were 100 U/ml for the same length of time as the corresponding TSA treatment. The percent of cells staining positive for MHC class II or CD40 expression is indicated below each histogram. Since all cells were positive for MHC class I expression, the number under the histogram represents -fold change of expression calculated from the mean channel-shift after treatment relative to untreated cells. Data are representative of at least three independent experiments. Of the 13 markers analyzed on J558 cells, only class I, II and CD40 were enhanced, while levels of several non-expressed antigens were not elicited (including CD25, B7 integrin, CD40L, H2K^k and IA^k) while other markers, which were expressed, were not altered (including CD44, CD54, CD80, CD86 and CD119) by TSA treatment. […] The highest expression (21-fold induction) was achieved on J558 cells after 24 hr by 25 nM TSA. […] The separation of control and IFNγ curves in the CD40, J558 experiment depicted in FIG. 8 represents a mean channel fluorescence difference of only 1.3 and was not seen on independent replicates of the experiment.
TSA has been described as a cell cycle inhibitor that induces both G1 and especially G2/M blocks (Bestor, 1998, Nature, 393:311-312; Yoshida et al., 1988, Exp. Cell Res. 177:122-131). MHC class II, but not class I, has been reported (Inokoshi et al., 1999, Biochem. Biophys. Res. Commun., 256:372-376; Monroe et al., 1983, J. Immunol., 130:626-631) to be regulated differentially during the cell cycle. Therefore the cell cycle of the cell lines used in the present invention was analyzed by DNA staining and flow cytometry with each of the treatment conditions under study. […] Two additional methods were used to analyze cell cycle effects on MHC expression. Since it has been reported that TSA arrests cell cycle mainly in G2/M, and class II has been reported to accumulate in G2/M (Monroe et al., 1983, supra), experiments were designed to essentially arrest 100% of J558 cells in G2/M with nocodazole. […] From the above experiments, it can be concluded that DAIs have specific effects on MHC class I and II, and CD40 gene expression, which is likely not a result of its action on the cell cycle.

[5] = tested on: HLA-DRα mRNA; assay: HLA-DRα mRNA by standard PCR and real-time PCR in human cell lines JAR and SK-N-MC; assay type: cell-based; conditions: JAR; for fold increase in HLA-DRα (MHC class II) mRNA over the control: real time quantitative RT-PCR, 100 nM TSA, IFNγ 100 U/ml or combination for 12 hours, sodium butyrate (FIG. 2)
Method: To determine the effect of DAIs on HLA-DRα mRNA, cytoplasmic RNA was isolated from untreated and treated human trophoblast cell line JAR using standard techniques (RNeasy System from Qiagen). Standard PCR was performed using primers for DR and CIITA (Murphy et al., 1998, Reprod Dev., Chin et al., 1994, Immunity 1:687-697). Other primers used included human and mouse GAPDH (Clontech) and forward primer 5′-[…]-3′ (SEQ ID NO:25) and reverse primer 5′-[…]-3′ (SEQ ID NO:26) for mouse CIITA. PCR products were amplified with GOLD Taq for 10 min at 95° C., then 95° C. for 30 sec, 60° C. for 60 sec (25-45 cycles), then an extension at 60° C. for 10 min.
Oligonucleotide primers and TaqMan 5′-6-FAM and 3′-TAMRA-labeled probes were synthesized in the RPCI Biopolymer Facility. Primer and probe sequences are listed under Sequence Listing and also in FIG. 9. Sequences were designed using standard software (PrimerExpress software, PE Biosystems) except for human GAPDH.
Realtime PCR reactions contained TaqMan Universal PCR Master Mix (PE Biosystems), primers at 300 nM, and probes at optimal concentrations (150-225 nM depending on gene). Reactions were carried out on an ABI PRISM 7700 Sequence Detection System (PE Biosystems). Cycling conditions were 50° C. for 2 min, 95° C. for 10 min, then 60 cycles of 95° C. for 15 sec, 60° C. for 1 min. PCR samples were run in triplicate. The detection system and quantitative PCR was carried out as described by Williamson et al. (1995, Genet Res. 65:83-93). The threshold cycle number CT corresponded to the cycle number, at which the fluorescent emission reaches 10 standard deviations above the mean fluorescent emission, measured during the early ‘baseline’ cycles of the PCR. The CT values for triplicates were averaged and normalized to GAPDH levels. […] Assuming reverse transcription efficiencies were approximately the same for each sample, relative amounts of mRNA using the comparative CT method. Fold changes in mRNA levels were calculated as 2^x where x=the difference between normalized CT values of the control and experimental samples.
To evaluate the effects of DAIs on human cells, the human trophoblast cell line was treated with 100 nM Trichostatin A (TSA), IFNγ (100 U/ml) or a combination of TSA and IFNγ for 12 hours. RNA was isolated and real time quantitative RT-PCR was carried out. The fold increase in mRNA over the control was calculated.

Row | Compound | cells positive for class II expression ([1]; TSA concentration used in FIG. 8 (50 nM for 48 hours)) [%] | expression of MHC class II protein on the cell surface [1] | expression of CD40 on cell surface ([2]; Colon 26 and J558, flow cytometry) | CD40 mRNA fold increase [3] [fold] | expression of MHC class II protein on the cell surface [4] | cells positive for class II expression ([4]; Colon 26, TSA concentration used in FIG. 8 (50 nM for 48 hours)) [%] | MHC class II positive cells ([4]; J558, G2/M arrest experiment with nocodazole, data not shown) [%] | cells positive for class II expression ([4]; J558, TSA concentration used in FIG. 8 (25 nM for 24 hours)) [%] | induction of cell surface MHC class II, mean channel fluorescence ([4]; J558 cells, 24 hr, 25 nM TSA, highest expression) [fold] | fold increase in HLA-DRα (MHC class II) mRNA over the control [5] | levels of mRNA for DR ([5]; standard PCR, 100 nM or 250 nM TSA or 1 mM sodium butyrate) | mean channel fluorescence difference between control and IFNγ curves, CD40 ([2]; J558, IFNγ 100 U/ml 24 hours, not seen on independent replicates)
1 | CC(/C=C/C(=O)NO)=C\[C@@H](C)C(=O)c1ccc(N(C)C)cc1 [TSA, Trichostatin A] | 29 | significantly induced | induced expression | 12 | significantly induced | 53 | 75 | 87 | 21 | 15 fold | substantial increase | –
2 | IFNγ: gamma-interferon, cytokine used as comparator at 100 U/ml | – | did not induce | – | 5 | did not induce | – | – | – | – | did not induce | – | 1.3
